Reference: patent US20160303095A1, “METHODS OF TREATING HEPATITIS B VIRUS” (Gilead Sciences, Inc., priority 2015, published 2016)
Like-named read-outs stand apart in the source and are kept apart here.

Assays:
KDM5A = KDM5A (Homo sapiens, UniProt P29375); test: Biochemical KDM inhibition assay (LANCE), KDM5A; conditions: read-out: Biochemical IC50 KDM 5A
Description: (§1) Representative compounds were characterized for their inhibition of KDM5 using biotinylated histone substrates. Inhibition was measured in vitro (CEREP Poitier, Le Bois l'Evêque, France) following experimental conditions described in Table 2. Briefly, the test compound, reference compound or water (control) was mixed with about 2-20 ng of recombinant, Human enzymes expressed in Sf9 cells in a buffer containing 45 mM Hepes/Tris (pH 7), 5 μM FAS, 100 μM ascorbic acid, 10 μM 2-oxoglutarate, 0.01% Tween 20 and 0.01% BSA. Thereafter, the reaction was initiated by adding the biotin-labeled substrate, and the mixture was incubated for 10-30 min at room temperature. For basal control measurements, the enzyme was omitted from the reaction mixture. Following incubation the reaction was stopped by adding 1 mM EDTA. After 5 min, the anti-methyl histone antibody labeled with europium chelate and the Ulight streptavidine (Perkin Elmer Waltham, Mass.) were added. After 60 min more, the fluorescence transfer was measured at λex=320 nm and λem=620 and λem=665 nm using a microplate reader (Envision, Perkin Elmer) (LANCE). The enzyme activity was determined by dividing the signal measured at λem=665 nm by that measured at 620 nm (ratio).

KDM5B = target: T1, KDM5B (Homo sapiens, UniProt Q9UGL1); test: Biochemical KDM inhibition assay (LANCE), KDM5B; conditions: read-out: Biochemical IC50 KDM 5B
T1 construct: host or cells: Sf9 cells
Description: as §1

KDM5C = target: T2, KDM5C (Homo sapiens, UniProt P41229); test: Biochemical KDM inhibition assay (LANCE), KDM5C; conditions: read-out: Biochemical IC50 KDM 5C
T2 construct: host or cells: Sf9 cells
Description: as §1

HBV = test: PHH screening protocol: HBsAg and HBeAg levels by MSD ELISA; format: cell-based, Hepatitis B Virus; conditions: for EC50: Hepatitis B virus; for time dependency of anti HBV activity: PHH donor 8181 infected with patient virus 21p (GTA)
Description: HBV antiviral activity was assessed in primary human hepatocytes (PHH) in a 96-well format. PHH were (Life Technologies, Chicago, 11) plated on collagen coated tissue culture plates using Plating Media containing William's Medium E supplemented with 1% Penicillin/Streptomycin, 4 μg/mL human recombinant insulin, 2 mM glutamax, 15 mM Hepes, 1 μM dexamethasone and 5% fetal bovine serum (Life Technologies, Cat#A12176-01 Life Technologies, Chicago, Ill.). After a 4-hour incubation at 37° C., cells were switched to Maintenance Media (Cat#CM4000-A15564 Life Technologies, Chicago, Ill.) containing William's Medium E supplemented with 0.5% Penicillin/Streptomycin, 6.25 μg/mL human recombinant insulin, 6.25 μg/mL human transferrin, 6.25 ng/mL selenous acid, 1.25 mg/mL bovine serum albumin, 5.35 μg/mL linoleic acid, 2 mM glutamax, 15 mM Hepes, 0.1 μM dexamethasone, 2% fetal bovine serum, and 2% DMSO (Cat#D2650 Sigma, St. Louis, Mo.). On the next day, cells were infected with approximately 500 genome equivalent of selected HBV clinical isolates (21P (GTA), 32P (GTA), 91P (GTA), AD38 (GTD), 65P (GTD) or 30P (GTE); ProteoGenex, Culver City, Calif.) per cell in Maintenance Media supplemented with 4% PEG 8000 (Cat#V3011 Promega, Madison, Wis.). After 24 hour incubation cells were washed three times with William's Medium E and fed with fresh Maintenance Media. Small molecule inhibitors targeting KDMs were serially diluted in Maintenance Media and added to cells at 3 days post infection (p.i.). Media with compounds was replenished every 2-3 days. Media collected on various days was used for determination of HBsAg and HBeAg levels by MSD ELISA, and HBV RNA by qPCR. All data were converted into percentages of the untreated control and non-linear regression was performed to calculate EC50 or CC50 values.

KDM5D = target: T3, KDM5D (Homo sapiens, UniProt Q9BY66); test: Biochemical KDM inhibition assay (LANCE), KDM5D; conditions: read-out: Biochemical IC50 KDM 5D
T3 construct: host or cells: Sf9 cells
Description: as §1

[1] = Alamar Blue cell viability assay; format: cell-based; conditions: human
Description: Alamar Blue cell viability reagent (Cat#DAL1100 Life Technologies, Chicago, Ill.) was diluted 1 to 10 in Maintenance Media and added to the cells. Cells were incubated for 4 h at 37° C. and the fluorescence signal, which is proportional to the number of live cells, was read using a fluorimeter with excitation/emission spectra set at 560/590 nm, respectively. Data were converted into percentages of the untreated control and non-linear regression was performed to calculate CC50 values.
PHH were plated in collagen coated tissue culture plates in Plating Media and after 4-hour incubation at 37° C., cells were switched to Maintenance Media. On the next day, the cells were infected with 500 genome equivalents per cell of Genotype-A clinical isolate 21P (ProteoGenex, Culver City, Calif.) in 100 μl Maintenance Media supplemented with 4% PEG 8000 (Cat#V3011 Promega, Madison, Wis.). After an overnight incubation the inoculum was removed and the cells were washed three times with William's Media E and maintained in Maintenance Media. […] Following the transfection, the cells were incubated at 37° C. in a humidified incubator and media was changed every 3-4 days. The assay was terminated on day 14 post infection and cell viability was assessed by Alamar Blue. The collected medium was used for determination of HBsAg and HBeAg levels by MSD ELISA while cells were processed for determination of HBV RNA using qPCR.

[2] = read-out: HBeAg EC50, HBV-infected PHH
[3] = read-out: HBsAg EC50, HBV-infected PHH
[4] = read-out: HBeAg EC50, D 8, PHH donor 8181, virus 21p
[5] = read-out: HBeAg EC50, D 13, PHH donor 8181, virus 21p
[6] = read-out: HBeAg EC50, D 17, PHH donor 8181, virus 21p
[7] = read-out: HBeAg EC50, D 22, PHH donor 8181, virus 21p
[8] = read-out: HBeAg EC50, D 27, PHH donor 8181, virus 21p
[9] = read-out: HBsAg EC50, D 8, PHH donor 8181, virus 21p
[10] = read-out: HBsAg EC50, D 13, PHH donor 8181, virus 21p
[11] = read-out: HBsAg EC50, D 17, PHH donor 8181, virus 21p
[12] = read-out: HBsAg EC50, D 22, PHH donor 8181, virus 21p
[13] = read-out: HBsAg EC50, D 27, PHH donor 8181, virus 21p

T2 sequence (P41229 whole entry): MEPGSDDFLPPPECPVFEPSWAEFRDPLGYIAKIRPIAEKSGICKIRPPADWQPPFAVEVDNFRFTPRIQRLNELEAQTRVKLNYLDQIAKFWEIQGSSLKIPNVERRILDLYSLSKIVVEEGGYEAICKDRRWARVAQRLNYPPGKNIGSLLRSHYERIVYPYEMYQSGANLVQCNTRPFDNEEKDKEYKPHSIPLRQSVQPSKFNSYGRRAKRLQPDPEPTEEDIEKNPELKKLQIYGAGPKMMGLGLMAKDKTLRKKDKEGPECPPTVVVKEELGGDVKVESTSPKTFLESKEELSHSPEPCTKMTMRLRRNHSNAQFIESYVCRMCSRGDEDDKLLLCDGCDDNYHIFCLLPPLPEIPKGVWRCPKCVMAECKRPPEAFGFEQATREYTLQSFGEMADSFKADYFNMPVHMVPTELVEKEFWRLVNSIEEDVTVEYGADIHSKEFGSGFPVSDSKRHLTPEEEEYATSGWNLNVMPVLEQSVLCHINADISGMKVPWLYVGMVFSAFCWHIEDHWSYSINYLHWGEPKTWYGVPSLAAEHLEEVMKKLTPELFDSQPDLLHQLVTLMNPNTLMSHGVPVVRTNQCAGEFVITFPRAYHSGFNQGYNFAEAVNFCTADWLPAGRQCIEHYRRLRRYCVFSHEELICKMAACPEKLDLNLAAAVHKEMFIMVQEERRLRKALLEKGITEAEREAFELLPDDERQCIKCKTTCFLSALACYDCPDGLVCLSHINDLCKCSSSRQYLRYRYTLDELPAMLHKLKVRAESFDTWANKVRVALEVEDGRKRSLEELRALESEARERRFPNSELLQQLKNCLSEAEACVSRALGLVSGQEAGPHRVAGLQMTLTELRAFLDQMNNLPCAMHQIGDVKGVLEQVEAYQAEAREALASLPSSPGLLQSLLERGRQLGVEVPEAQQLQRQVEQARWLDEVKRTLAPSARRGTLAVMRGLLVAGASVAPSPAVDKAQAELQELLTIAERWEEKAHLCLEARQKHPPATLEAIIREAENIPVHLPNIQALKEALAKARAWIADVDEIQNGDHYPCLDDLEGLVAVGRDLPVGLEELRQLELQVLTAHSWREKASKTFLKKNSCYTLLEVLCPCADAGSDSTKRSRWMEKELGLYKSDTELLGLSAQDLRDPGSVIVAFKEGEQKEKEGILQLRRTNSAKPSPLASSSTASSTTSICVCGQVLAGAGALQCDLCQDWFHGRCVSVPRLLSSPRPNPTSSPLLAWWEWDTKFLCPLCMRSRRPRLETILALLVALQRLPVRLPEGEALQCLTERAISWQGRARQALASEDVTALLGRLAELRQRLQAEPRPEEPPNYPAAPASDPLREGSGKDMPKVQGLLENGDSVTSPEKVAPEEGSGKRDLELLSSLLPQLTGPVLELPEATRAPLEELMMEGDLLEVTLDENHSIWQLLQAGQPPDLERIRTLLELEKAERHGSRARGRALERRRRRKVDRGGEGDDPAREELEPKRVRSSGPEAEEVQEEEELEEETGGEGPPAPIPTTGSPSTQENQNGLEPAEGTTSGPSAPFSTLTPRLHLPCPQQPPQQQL
T3 sequence (Q9BY66 whole entry): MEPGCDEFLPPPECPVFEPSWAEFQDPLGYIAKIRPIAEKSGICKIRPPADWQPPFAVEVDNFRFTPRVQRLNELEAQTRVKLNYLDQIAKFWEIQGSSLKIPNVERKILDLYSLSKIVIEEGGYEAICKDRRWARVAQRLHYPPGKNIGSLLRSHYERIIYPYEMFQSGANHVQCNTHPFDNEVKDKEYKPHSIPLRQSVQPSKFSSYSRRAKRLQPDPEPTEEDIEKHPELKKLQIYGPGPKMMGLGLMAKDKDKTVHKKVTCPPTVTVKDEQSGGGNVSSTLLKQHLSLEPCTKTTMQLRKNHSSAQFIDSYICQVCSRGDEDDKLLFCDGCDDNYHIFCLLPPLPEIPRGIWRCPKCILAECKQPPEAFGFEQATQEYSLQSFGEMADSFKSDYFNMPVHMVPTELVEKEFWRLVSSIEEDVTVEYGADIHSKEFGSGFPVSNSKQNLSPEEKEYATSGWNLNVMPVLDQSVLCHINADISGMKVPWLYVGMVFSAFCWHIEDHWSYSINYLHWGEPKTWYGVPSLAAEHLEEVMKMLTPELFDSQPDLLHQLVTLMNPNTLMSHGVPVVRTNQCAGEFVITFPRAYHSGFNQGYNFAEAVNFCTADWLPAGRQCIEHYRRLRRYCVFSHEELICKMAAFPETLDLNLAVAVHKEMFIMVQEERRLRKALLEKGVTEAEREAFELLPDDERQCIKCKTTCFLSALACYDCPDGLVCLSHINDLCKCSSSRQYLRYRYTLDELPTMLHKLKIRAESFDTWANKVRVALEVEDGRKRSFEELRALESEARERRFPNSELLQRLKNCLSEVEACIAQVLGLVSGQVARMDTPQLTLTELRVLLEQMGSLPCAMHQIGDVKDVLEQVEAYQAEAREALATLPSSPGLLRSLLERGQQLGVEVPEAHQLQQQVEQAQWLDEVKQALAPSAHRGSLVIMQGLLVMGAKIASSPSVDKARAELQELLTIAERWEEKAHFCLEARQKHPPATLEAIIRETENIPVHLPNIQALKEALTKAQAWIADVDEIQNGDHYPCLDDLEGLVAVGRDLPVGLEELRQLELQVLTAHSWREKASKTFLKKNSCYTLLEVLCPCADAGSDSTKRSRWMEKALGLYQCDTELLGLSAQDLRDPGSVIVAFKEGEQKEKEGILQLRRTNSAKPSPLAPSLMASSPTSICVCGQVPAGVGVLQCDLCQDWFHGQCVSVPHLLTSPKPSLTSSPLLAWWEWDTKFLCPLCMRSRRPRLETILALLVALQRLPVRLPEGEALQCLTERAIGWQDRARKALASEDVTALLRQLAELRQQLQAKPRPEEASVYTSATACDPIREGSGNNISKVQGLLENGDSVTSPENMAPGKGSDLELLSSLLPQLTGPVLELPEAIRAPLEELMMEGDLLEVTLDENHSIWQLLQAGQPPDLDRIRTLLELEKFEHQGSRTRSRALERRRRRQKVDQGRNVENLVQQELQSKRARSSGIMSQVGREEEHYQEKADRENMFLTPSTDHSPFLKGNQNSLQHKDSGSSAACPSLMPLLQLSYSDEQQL
Sequence of KDM5A (P29375 whole entry): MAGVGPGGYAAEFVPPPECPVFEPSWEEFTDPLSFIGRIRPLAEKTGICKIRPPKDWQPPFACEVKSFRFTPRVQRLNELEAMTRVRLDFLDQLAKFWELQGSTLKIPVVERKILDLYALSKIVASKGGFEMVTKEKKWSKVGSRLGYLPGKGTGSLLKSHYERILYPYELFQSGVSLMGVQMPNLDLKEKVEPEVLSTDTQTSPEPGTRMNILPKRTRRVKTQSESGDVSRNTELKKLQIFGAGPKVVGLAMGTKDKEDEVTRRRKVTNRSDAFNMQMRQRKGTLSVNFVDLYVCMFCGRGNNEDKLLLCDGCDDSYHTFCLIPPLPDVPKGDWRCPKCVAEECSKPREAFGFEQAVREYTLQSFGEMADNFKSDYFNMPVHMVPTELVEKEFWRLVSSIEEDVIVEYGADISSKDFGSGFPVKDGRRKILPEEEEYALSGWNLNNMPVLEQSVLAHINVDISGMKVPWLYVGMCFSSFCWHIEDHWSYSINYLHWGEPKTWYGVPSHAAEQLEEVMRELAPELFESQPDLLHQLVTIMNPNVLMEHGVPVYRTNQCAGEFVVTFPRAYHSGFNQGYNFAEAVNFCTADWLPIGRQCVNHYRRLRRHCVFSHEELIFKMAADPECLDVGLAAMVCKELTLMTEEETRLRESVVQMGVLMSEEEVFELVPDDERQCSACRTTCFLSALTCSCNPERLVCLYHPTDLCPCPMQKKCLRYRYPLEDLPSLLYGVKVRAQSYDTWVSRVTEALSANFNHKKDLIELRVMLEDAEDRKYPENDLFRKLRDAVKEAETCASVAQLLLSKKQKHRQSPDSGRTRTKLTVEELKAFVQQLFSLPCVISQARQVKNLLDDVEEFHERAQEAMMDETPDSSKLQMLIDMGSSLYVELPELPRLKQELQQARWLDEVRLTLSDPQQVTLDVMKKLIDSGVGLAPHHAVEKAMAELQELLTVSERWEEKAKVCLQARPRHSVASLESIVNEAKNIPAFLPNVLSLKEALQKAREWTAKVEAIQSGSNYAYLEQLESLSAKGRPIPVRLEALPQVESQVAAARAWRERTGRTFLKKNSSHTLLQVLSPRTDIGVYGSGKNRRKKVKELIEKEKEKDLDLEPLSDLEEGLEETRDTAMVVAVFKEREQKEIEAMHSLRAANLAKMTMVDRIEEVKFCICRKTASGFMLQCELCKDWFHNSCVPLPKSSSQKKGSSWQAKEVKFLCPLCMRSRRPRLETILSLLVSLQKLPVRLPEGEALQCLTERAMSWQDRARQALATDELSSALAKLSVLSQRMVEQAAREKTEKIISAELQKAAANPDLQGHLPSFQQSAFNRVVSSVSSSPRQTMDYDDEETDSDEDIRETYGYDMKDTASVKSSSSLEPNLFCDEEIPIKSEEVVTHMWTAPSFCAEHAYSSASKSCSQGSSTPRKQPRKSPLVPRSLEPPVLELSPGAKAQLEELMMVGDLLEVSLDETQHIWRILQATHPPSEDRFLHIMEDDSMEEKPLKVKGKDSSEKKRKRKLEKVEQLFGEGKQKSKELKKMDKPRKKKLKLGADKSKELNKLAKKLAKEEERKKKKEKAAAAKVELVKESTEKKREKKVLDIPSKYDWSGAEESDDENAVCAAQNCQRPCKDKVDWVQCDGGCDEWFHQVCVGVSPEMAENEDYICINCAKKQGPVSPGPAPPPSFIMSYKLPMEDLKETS

| Structure (SMILES) | IC50 (KDM5A) | IC50 (KDM5B) | IC50 (KDM5C) | EC50 (HBV; [2]) | EC50 (HBV; [3]) | IC50 (KDM5D) | CC50 [1] | EC50 (HBV; [4]) | EC50 (HBV; [5]) | EC50 (HBV; [6]) | EC50 (HBV; [7]) | EC50 (HBV; [8]) | EC50 (HBV; [9]) | EC50 (HBV; [10]) | EC50 (HBV; [11]) | EC50 (HBV; [12]) | EC50 (HBV; [13]) | time dependency of anti HBV activity (HBV) | EC50 (HBV; read-out: HBeAg EC50, D 31, PHH donor 8181, virus 21p) | EC50 (HBV; read-out: HBsAg EC50, D 31, PHH donor 8181, virus 21p) |
| --- | --- | --- | --- | --- | --- | --- | --- | --- | --- | --- | --- | --- | --- | --- | --- | --- | --- | --- | --- | --- |
| N#CNC(=O)c1ccncc1Nc1nn(CCN2CCC(F)(F)CC2)c2ccc(F)cc12 [Example 14] | 29 nM | 14 nM | 240 nM | 1090 nM | 1300 nM | 85 nM | ≥ 50 µM |  |  |  |  |  |  |  |  |  |  |  |  |  |
| CCN(CCN(C)C)C(=O)CNCc1cc(C(=O)O)ccn1 [Example 9] | 24 nM | 14 nM | 26 nM | 1630 nM | 2020 nM | 66 nM | ≥ 50 µM | > 100000 nM | 849 nM | 267 nM | 153 nM | 300 nM | > 100000 nM | 2330 nM | 369 nM | 200 nM | 400 nM | time dependent |  |  |
| Cc1cc(Cl)ccc1COc1ccnn1-c1cc(C(=O)O)ccn1 [Example 11] | 28 nM | 36 nM | 270 nM | 5770 nM | 4050 nM | 98 nM | ≥ 50 µM |  |  |  |  |  |  |  |  |  |  |  |  |  |
| O=C(O)c1ccncc1Nc1nn(CCN2CCC(F)(F)CC2)c2ccc(F)cc12 [Example 13] | 21 nM | 21 nM | 86 nM | 5970 nM | 3980 nM | 65 nM | ≥ 50 µM |  |  |  |  |  |  |  |  |  |  |  |  |  |
| Nc1c(C(=O)O)ccnc1C(=O)O [Example 7, reference compound] | 1200 nM | 510 nM | 540 nM | 642 nM | 481 nM | 700 nM | ≥ 100 µM | > 50000 nM | 4030 nM | 1100 nM | 90 nM | 60 nM | > 50000 nM | 990 nM | 580 nM | 70 nM | 60 nM | time dependent | 60 nM | 60 nM |
| CCN(CC)CCCCNCc1cc(C(=O)O)ccn1 [Example 18] | 11 nM | 3.1 nM | 21 nM | 22600 nM | 19500 nM | 33 nM |  |  |  |  |  |  |  |  |  |  |  |  |  |  |
